Assay results from article PMC7957705 (Molecules, 2021).
Entries after “also recorded” stand apart in the source; their conditions may differ. Marks after values point to notes of the source that are not given here. Where a SMILES comes first, the peptide text is derived from it. Bridges are numbered along the chain shown (N, C = ends). Triazole bridges read from a SMILES are 1,4-linked. [ ]: non-standard residue; d: D form. The star is where a group is joined. Benzoyl(4-guanidino) = N=C(N)Nc1ccc(C(=O)*)cc1; Aha = [N-]=[N+]=NCC[C@H](N)C(=O)O; β3hV = CC(C)[C@H](N)CC(=O)O; Nle = CCCC[C@H](N)C(=O)O; Pra = C#CC[C@H](N)C(=O)O

What was measured:
[1] = system: high-fat diet-induced obese C57BL/6 mice; assay: Diet-induced obesity model: blood biochemistry; assay type: in vivo, mouse; settings: for Insulin / Total Cholesterol / Triglyceride: High-Fat Diet mice
Procedure: (§1) Male C57BL/6 mice at 4 weeks of age were provided by BioLasco Taiwan (under Charles River Laboratories Licensee). All animals were maintained in an environment with well-controlled temperature (20–24 °C) and humidity (30–70%) with 12 h light/dark cycles. Free access to standard lab diet (MFG (Oriental Yeast Co., Ltd., Japan)) and autoclaved tap water was granted. All aspects of this work including housing, experimentation, and animal disposal were performed in general accordance with the “Guide for the Care and Use of Laboratory Animals: Eighth Edition” (National Academies Press, Washington, D.C., 2011) in our laboratory animal facility accredited by the […]. In addition, the protocol for animal care and use was reviewed and approved by the Institutional Animal Care and Use Committee (IACUC) at Pharmacology Discovery Services Taiwan, Ltd.
ALT (Alanine aminotransferase) and AST (Aspartate aminotransferase) assay kit (Denka Seiken, Japan), Cholesterol assay kit (Denka, Japan), Creatinine assay kit (Denka Seiken, Japan), Mouse insulin ELISA kit (Crystal chem, Elk Grove Village, IL, USA), Na^+/K^+ assay kit (Toshiba, Japan), Triglyceride assay kit (Sentinel Diagnostics, Milano, Italy) and Water for injection (Tai-Yu, Taiwan).
(§2) The protocol was performed for all groups and all animals. Male C57BL/6 mice were fed a high-fat diet (HFD) (60% of calories) or a standard chow diet (STD) from 4 weeks of age. Thirty (30) mice were fed the HFD and 10 mice were fed the STD (for 8 weeks before treatment) for a total of 20 weeks. The mice assigned to the STD diet were maintained on this diet throughout the study as a reference group of lean control mice. From Week 9, HFD-fed mice were grouped by body weight before dosing. Body weight was recorded three times weekly from Week 9. Food/water intake was recorded twice weekly from Week 9. Blood chemistry analyzes were performed in Weeks 8 (before dosing, Day 56), 16 (Day 113) and 20 (Day 141), including serum insulin, total cholesterol (T-CHO), triglyceride (TG), alanine aminotransferase (ALT), aspartate aminotransferase (AST), uric acid (UA), creatinine, potassium (K^+) and sodium (Na^+). At the termination in Week 20 (Day 141), the adipose tissue weight, including epididymal, mesenteric, inguinal, retroperitoneal, and brown fat, was measured after the animals were sacrificed. Two-way ANOVA followed by Bonferroni’s tests were applied to ascertain the difference between vehicle control and treated animals. Significance was set at p < 0.05 level. The following parameters were measured: (1) body weight three times weekly; (2) food/water intake twice weekly; (3) blood chemistry in Weeks 8 (before dosing), 16 and 20 including glucose, insulin, serum lipids (triglycerides (TG), total cholesterol (TC), AST, alanine aminotransferase (ALT), uric acid, creatinine, potassium and sodium through 16-h fasting animals; and finally, (4) total body fat (including visceral and subcutaneous fat) in Week 20.

[2] = system: high-fat diet-induced obese C57BL/6 mice; assay: Diet-induced obesity model: adipose tissue weights; assay type: in vivo, mouse
Procedure: as §1, §2

[3] = system: fa/fa rats; assay: Genetic model of obesity (fa/fa rats); assay type: in vivo, rat; settings: data not shown
[4] = 5 and 10 mg/kg i.p. once daily for 12 weeks, day 113 and day 141
[5] = 5 or 10 mg/kg i.p. daily, HFD mice
[6] = 5 or 10 mg/kg i.p. daily, Day 113 and Day 141
[7] = 5 mg/kg QD x 12 weeks IP, Day 56 (before dosing), mean
[8] = 5 mg/kg QD x 12 weeks IP, Day 113, mean
[9] = 5 mg/kg QD x 12 weeks IP, Day 141, mean
[10] = 10 mg/kg QD x 12 weeks IP, Day 56 (before dosing), mean
[11] = 10 mg/kg QD x 12 weeks IP, Day 113, mean
[12] = 10 mg/kg QD x 12 weeks IP, Day 141, mean
[13] = 5 and 10 mg/kg i.p. once daily for 12 weeks, Week 20 (Day 141)

SMILES: CCCC[C@@H]1NC(=O)[C@@H](NC(=O)c2ccc(NC(=N)N)cc2)CCn2cc(nn2)C[C@@H](C(=O)N[C@@H](Cc2c[nH]c3ccccc23)C(=O)O)NC(=O)[C@@H]2CCCN2C(=O)[C@H](CCCNC(=N)N)NC(=O)C[C@H](C(C)C)NC(=O)[C@H](CCCNC(=N)N)NC(=O)[C@H](CC(C)C)NC1=O [GPS18169] ({Benzoyl(4-guanidino)}-[Aha][Nle]LR[β3hV]RP[Pra]W-OH; triazole 1-8)
- insulin level ([1]; 10 mg/kg daily, 12 weeks, vs vehicle treated/normal diet): back to the control
- serum alanine aminotransferase (ALT) level vs vehicle [1, 4]: not associated with any significant effect
- serum aspartate aminotransferase (AST) level vs vehicle [1, 4]: not associated with any significant effect
- total cholesterol level [1, 5]: remained high, despite a modest reduction; also recorded: improvement
- triglycerides level [1, 5]: remained high, despite a modest reduction; also recorded: improvement
- insulin level ([1]; 5 or 10 mg/kg i.p. daily, after 12 weeks of treatment, HFD mice): normalization; also recorded: significant reduction; also recorded: improvement; also recorded: return to almost normal
- serum creatinine level vs vehicle [1, 6]: did not lead to any significant effect
- serum potassium (K+) level vs vehicle [1, 6]: did not lead to any significant effect
- serum sodium (Na+) level vs vehicle [1, 6]: did not lead to any significant effect
- serum uric acid (UA) level vs vehicle ([1]; 5 or 10 mg/kg i.p. daily, Week 16 (Day 113) and Week 20 (Day 141)): did not lead to any significant effect
- Insulin [1, 7]: 909.5 pg/mL
- Total Cholesterol [1, 7]: 158.3 mg/dL
- Triglyceride [1, 7]: 121.8 mg/dL
- Insulin [1, 8]: 1983.8 pg/mL
- Total Cholesterol [1, 8]: 143.1 mg/dL
- Triglyceride [1, 8]: 115.3 mg/dL
- Total Cholesterol [1, 9]: 135.6 mg/dL
- Triglyceride [1, 9]: 108.9 mg/dL
- Insulin [1, 10]: 1068.0 pg/mL
- Total Cholesterol [1, 10]: 155.6 mg/dL
- Triglyceride [1, 10]: 122.9 mg/dL
- Insulin [1, 11]: 1549.7 pg/mL
- Total Cholesterol [1, 11]: 135.7 mg/dL
- Triglyceride [1, 11]: 108.3 mg/dL
- Insulin [1, 12]: 957.0 * pg/mL
- Total Cholesterol [1, 12]: 132.1 mg/dL
- Triglyceride [1, 12]: 102.1 mg/dL
- adipose tissue weight / accumulation ([2]; 5 and 10 mg/kg i.p. once daily for 12 weeks): active in limiting the accumulation of adipose tissues; also recorded: significant decrease
- weight of brown fat [2, 13]: significant (p < 0.05) decrease
- weight of inguinal fat [2, 13]: significant (p < 0.05) decrease
- weight of mesenteric fat [2, 13]: significant (p < 0.05) decrease
- weight of retroperitoneal fat [2, 13]: significant (p < 0.05) decrease
- weight ratio of adipose tissue to the whole body ([2]; g/100 g of body weight): constant
- changes between treated and untreated animals [3]: no changes were recorded
